Drawing on ChEMBL document CHEMBL1141985, “Carbonic anhydrase inhibitors. Inhibition of the human cytosolic isozyme VII with aromatic and heterocyclic sulfonamides” (Bioorg Med Chem Lett, 2005), this text covers Ki for 21 compounds.

As a reminder, the Ki is a dissociation constant, usually derived from enzyme kinetics or from competition with a known ligand. A higher Ki goes with weaker binding.

Molecules are shown by their SMILES.

Some targets named below: Carbonic anhydrase 7 (Homo sapiens, UniProt P43166); Carbonic anhydrase 13 (Mus musculus, UniProt Q9D6N1); Carbonic anhydrase 1 (Homo sapiens, UniProt P00915).

Carbonic anhydrase 7, sequence (P43166 whole entry): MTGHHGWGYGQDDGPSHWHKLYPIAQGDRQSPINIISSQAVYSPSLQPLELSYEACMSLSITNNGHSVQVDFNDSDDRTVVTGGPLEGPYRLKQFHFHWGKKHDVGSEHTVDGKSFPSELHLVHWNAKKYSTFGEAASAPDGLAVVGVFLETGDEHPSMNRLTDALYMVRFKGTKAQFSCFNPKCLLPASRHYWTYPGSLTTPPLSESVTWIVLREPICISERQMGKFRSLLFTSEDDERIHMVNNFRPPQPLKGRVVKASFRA
Carbonic anhydrase 1, sequence (P00915 whole entry): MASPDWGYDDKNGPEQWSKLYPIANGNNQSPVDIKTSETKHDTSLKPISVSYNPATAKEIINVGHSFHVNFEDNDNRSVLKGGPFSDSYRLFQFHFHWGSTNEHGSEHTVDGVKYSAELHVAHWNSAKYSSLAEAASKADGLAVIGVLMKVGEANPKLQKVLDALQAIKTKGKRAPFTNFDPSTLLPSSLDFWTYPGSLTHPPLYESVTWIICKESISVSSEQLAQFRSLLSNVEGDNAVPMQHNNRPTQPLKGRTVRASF
Carbonic anhydrase 13, sequence (Q9D6N1 whole entry): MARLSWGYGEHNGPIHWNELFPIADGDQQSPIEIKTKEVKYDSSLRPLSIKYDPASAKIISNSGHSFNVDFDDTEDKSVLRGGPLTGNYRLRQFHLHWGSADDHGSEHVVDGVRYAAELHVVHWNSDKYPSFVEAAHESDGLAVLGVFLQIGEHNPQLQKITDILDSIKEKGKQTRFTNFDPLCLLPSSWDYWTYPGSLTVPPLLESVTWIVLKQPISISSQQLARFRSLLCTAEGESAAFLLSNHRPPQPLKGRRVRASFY
Description for Carbonic anhydrase 13: Ki value against murine carbonic anhydrase XIII
Description for Carbonic anhydrase 7: Ki value against human carbonic anhydrase VII

In the case of `NS(=O)(=O)c1nc2ccccc2s1`, the Ki at Carbonic anhydrase 7 came out at 4 nM.
`NNc1ccccc1S(N)(=O)=O`: the Ki at Carbonic anhydrase 7 came to 68 nM. This Ki is about 17-fold higher than that of the compound before.
On the same count and under the same terms, as for `Nc1nnc(S(N)(=O)=O)s1`, the figure is 5.2 nM.
As to `Nc1ccc(S(=O)(=O)NCc2ccc(S(N)(=O)=O)cc2)cc1`, the inhibitory constant (Ki) was determined as 5.6 nM at Carbonic anhydrase 7 and 2 nM on Carbonic anhydrase 13.
`Nc1ccc(S(N)(=O)=O)cc1I` displayed a Ki on Carbonic anhydrase 7 of 150 nM.
On to `NS(=O)(=O)c1nnc(-c2ccccc2Cl)s1`, for which the inhibition constant (Ki) at Carbonic anhydrase 7 is 5.4 nM; at Carbonic anhydrase 1 it was 690 nM.
`Nc1ccc(S(=O)(=O)NC2NN=C(S(N)(=O)=O)S2)cc1` (stereo not given) came in with a Ki at Carbonic anhydrase 7 of 7 nM.
Still for that read-out and setting: as for `Nc1nccc(Nc2ccc(S(N)(=O)=O)cc2)n1`, the figure is 6.8 nM; as for `Nc1ccccc1S(N)(=O)=O`, 45 nM.
Same read-out and setting: next, `Nc1ccc(S(N)(=O)=O)cc1Br`: 61 nM; `Cn1nc(S(N)(=O)=O)sc1=N`: 4.3 nM.
For the compound `NS(=O)(=O)c1ccc(CCO)cc1`, affinity at Carbonic anhydrase 7 was put at a Ki of 66 nM.
Take `Nc1ccc(S(N)(=O)=O)cc1F`: the Ki on Carbonic anhydrase 7 is 75 nM.
The same measure, in the same setting: as for `NS(=O)(=O)c1ccc(CO)cc1`, the figure is 60 nM.
The compound `Nc1ccc(S(N)(=O)=O)cc1Cl` registered a Ki on Carbonic anhydrase 7 of 120 nM. Compared with the last compound, the Ki is about 2-fold higher.
With `Nc1ccc(S(=O)(=O)NCCc2ccc(S(N)(=O)=O)cc2)cc1`, the inhibition constant (Ki) came out at 6.5 nM at Carbonic anhydrase 7 and 1.9 nM on Carbonic anhydrase 13.
Consider `NNc1ccc(S(N)(=O)=O)cc1`, for which the figures for the inhibitory constant (Ki) at Carbonic anhydrase 7 and at Carbonic anhydrase 1 were 89 nM and 28000 nM, respectively.
As for `NS(=O)(=O)c1ccc(C(=O)O)cc1` [CARZENIDE], the inhibition constant Ki at Carbonic anhydrase 7 came to 52 nM.
On the same count and under the same terms, as for `NCc1ccc(S(N)(=O)=O)cc1` [MAFENIDE], the figure is 75 nM.
The same measure, in the same setting: as for `Cc1ccc(S(N)(=O)=O)cc1` [P-TOLUENESULFONAMIDE], the figure is 88 nM; as for `Nc1ccc(S(N)(=O)=O)cc1` [SULFANILAMIDE], 70 nM.
